What was measured:
Assay in all cases: KINOMEscan scanMAX
Format in all cases: binding
Details in all cases: 2000 nM; read-out: Percent Control
CAMK1G = CAMK1G (Homo sapiens (Human), UniProt Q96NX5)
EGFR(L861Q) = EGFR(L861Q) (Homo sapiens (Human), UniProt P00533, L861Q)
FLT3(D835Y) = FLT3(D835Y) (Homo sapiens (Human), UniProt P36888, D835Y)
MAP4K2 = MAP4K2 (Homo sapiens (Human), UniProt Q12851)
RIOK1 = RIOK1 (Homo sapiens (Human), UniProt Q9BRS2)
EGFR = EGFR (Homo sapiens (Human), UniProt P00533)
MERTK = MERTK (Homo sapiens (Human), UniProt Q12866)
WNK1 = WNK1 (Homo sapiens (Human), UniProt Q9H4A3)
PDGFRA = PDGFRA (Homo sapiens (Human), UniProt P16234)
SGK2 = SGK2 (Homo sapiens (Human), UniProt Q9HBY8)
CSNK1A1 = CSNK1A1 (Homo sapiens (Human), UniProt P48729)
ULK2 = ULK2 (Homo sapiens (Human), UniProt Q8IYT8)
ZAP70 = ZAP70 (Homo sapiens (Human), UniProt P43403)
SRPK2 = SRPK2 (Homo sapiens (Human), UniProt P78362)
AKT2 = AKT2 (Homo sapiens (Human), UniProt P31751)
TNK1 = TNK1 (Homo sapiens (Human), UniProt Q13470)
DDR2 = DDR2 (Homo sapiens (Human), UniProt Q16832)
PKAC-beta (PRKACB) = PKAC-beta (PRKACB) (Homo sapiens (Human), UniProt P22694)
NIK (MAP3K14) = NIK (MAP3K14) (Homo sapiens (Human), UniProt Q99558)
CLK1 = CLK1 (Homo sapiens (Human), UniProt P49759)
GSK3B = GSK3B (Homo sapiens (Human), UniProt P49841)
RIPK5 (DSTYK) = RIPK5 (DSTYK) (Homo sapiens (Human), UniProt Q6XUX3)
PAK2 = PAK2 (Homo sapiens (Human), UniProt Q13177)
MKK7 (MAP2K7) = MKK7 (MAP2K7) (Homo sapiens (Human), UniProt O14733)
PCTK2 (CDK17) = PCTK2 (CDK17) (Homo sapiens (Human), UniProt Q00537)
PLK3 = PLK3 (Homo sapiens (Human), UniProt Q9H4B4)
PRKD2 = PRKD2 (Homo sapiens (Human), UniProt Q9BZL6)
BMPR2 = BMPR2 (Homo sapiens (Human), UniProt Q13873)
TSSK3 = TSSK3 (Homo sapiens (Human), UniProt Q96PN8)
EIF2AK1 = EIF2AK1 (Homo sapiens (Human), UniProt Q9BQI3)
CAMK2G = CAMK2G (Homo sapiens (Human), UniProt Q13555)
NEK5 = NEK5 (Homo sapiens (Human), UniProt Q6P3R8)
BUB1 = BUB1 (Homo sapiens (Human), UniProt O43683)
LOK (STK10) = LOK (STK10) (Homo sapiens (Human), UniProt O94804)
PIM2 = PIM2 (Homo sapiens (Human), UniProt Q9P1W9)
GRK2 (ADRBK1) = GRK2 (ADRBK1) (Homo sapiens (Human), UniProt P25098)
RIOK3 = RIOK3 (Homo sapiens (Human), UniProt O14730)
TNNI3K = TNNI3K (Homo sapiens (Human), UniProt Q59H18)
PIM1 = PIM1 (Homo sapiens (Human), UniProt P11309)
[1] = target: ABL1(Y253F)-phosphorylated (Homo sapiens (Human), UniProt P00519, Y253F)
FYN = FYN (Homo sapiens (Human), UniProt P06241)

Sequence of MERTK (Q12866 21-999): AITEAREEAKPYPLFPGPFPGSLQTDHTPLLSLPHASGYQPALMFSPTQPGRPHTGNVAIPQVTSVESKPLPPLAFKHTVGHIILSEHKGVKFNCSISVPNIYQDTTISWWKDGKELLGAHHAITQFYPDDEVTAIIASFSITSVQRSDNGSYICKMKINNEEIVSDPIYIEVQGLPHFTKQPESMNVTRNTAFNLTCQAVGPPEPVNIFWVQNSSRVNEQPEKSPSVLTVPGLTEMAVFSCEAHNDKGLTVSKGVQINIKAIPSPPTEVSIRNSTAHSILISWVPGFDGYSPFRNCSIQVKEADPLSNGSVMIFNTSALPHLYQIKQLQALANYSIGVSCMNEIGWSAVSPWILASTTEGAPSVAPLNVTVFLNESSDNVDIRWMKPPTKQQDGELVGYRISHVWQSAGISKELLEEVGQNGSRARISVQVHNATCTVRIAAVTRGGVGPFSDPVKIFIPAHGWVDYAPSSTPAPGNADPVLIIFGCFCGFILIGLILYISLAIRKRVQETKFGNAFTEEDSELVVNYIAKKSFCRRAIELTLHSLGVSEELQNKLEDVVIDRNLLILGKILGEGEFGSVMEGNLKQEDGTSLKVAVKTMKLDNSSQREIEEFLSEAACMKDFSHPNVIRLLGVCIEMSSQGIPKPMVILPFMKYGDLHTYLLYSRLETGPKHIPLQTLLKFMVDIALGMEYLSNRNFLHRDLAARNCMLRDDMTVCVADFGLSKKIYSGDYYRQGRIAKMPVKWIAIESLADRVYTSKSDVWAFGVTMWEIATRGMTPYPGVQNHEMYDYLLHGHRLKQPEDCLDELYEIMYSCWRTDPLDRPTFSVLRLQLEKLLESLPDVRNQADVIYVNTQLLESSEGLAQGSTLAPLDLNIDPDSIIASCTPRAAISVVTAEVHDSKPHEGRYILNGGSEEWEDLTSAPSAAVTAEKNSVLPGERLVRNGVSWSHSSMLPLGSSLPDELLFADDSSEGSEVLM
Sequence of EGFR(L861Q) (P00533 25-1210 L861Q): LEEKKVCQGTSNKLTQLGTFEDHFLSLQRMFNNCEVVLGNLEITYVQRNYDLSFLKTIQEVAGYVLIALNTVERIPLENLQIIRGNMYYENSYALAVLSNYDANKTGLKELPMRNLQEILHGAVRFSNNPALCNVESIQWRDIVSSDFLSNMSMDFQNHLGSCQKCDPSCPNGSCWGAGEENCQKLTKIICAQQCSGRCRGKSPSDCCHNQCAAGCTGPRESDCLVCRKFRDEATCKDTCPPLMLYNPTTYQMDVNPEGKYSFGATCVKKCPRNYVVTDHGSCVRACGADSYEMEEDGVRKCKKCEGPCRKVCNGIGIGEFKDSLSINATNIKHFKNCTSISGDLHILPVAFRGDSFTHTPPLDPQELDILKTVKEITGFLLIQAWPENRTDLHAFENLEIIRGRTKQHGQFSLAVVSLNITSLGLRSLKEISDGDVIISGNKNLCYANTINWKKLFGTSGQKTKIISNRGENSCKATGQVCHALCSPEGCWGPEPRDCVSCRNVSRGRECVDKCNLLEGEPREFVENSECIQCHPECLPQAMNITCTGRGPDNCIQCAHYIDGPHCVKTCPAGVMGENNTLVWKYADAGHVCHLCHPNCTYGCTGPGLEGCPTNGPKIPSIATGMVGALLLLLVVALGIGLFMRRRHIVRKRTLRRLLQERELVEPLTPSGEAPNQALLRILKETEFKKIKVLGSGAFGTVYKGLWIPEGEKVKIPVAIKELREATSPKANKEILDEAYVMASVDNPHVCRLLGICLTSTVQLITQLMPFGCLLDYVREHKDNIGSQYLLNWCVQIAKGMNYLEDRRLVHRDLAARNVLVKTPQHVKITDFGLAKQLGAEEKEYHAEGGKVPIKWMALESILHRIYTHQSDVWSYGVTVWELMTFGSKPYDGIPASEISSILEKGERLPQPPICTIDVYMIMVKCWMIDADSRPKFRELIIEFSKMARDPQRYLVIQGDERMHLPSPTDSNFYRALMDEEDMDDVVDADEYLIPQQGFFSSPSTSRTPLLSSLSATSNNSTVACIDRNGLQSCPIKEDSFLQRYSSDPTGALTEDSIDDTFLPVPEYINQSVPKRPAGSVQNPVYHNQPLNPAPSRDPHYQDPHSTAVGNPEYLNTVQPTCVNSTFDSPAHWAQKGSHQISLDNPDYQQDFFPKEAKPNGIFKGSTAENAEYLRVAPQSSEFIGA
Sequence of PAK2 (Q13177 whole entry): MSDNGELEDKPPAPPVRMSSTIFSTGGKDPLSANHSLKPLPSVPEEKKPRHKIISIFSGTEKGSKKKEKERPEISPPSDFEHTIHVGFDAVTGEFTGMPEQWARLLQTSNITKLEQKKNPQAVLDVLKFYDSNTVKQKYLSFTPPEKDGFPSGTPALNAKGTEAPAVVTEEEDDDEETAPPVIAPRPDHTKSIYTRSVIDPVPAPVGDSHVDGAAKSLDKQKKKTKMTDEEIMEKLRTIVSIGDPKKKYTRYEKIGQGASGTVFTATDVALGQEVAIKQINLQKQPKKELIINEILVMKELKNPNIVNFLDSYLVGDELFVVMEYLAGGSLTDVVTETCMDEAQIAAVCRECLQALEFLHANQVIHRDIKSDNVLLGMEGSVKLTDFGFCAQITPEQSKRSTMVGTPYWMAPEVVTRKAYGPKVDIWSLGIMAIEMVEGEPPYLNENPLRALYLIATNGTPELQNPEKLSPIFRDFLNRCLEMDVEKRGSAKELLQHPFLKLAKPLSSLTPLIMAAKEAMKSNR
Sequence of CSNK1A1 (P48729 whole entry): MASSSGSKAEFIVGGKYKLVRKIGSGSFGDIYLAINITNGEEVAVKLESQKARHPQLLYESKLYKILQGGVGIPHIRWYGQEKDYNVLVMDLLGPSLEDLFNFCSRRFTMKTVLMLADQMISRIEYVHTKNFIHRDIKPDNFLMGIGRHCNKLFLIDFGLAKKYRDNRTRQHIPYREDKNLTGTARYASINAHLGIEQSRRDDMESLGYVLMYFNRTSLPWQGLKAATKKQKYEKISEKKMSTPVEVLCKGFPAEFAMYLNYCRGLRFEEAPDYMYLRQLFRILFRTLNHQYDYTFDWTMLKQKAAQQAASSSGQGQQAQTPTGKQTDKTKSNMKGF
Sequence of BUB1 (O43683 whole entry): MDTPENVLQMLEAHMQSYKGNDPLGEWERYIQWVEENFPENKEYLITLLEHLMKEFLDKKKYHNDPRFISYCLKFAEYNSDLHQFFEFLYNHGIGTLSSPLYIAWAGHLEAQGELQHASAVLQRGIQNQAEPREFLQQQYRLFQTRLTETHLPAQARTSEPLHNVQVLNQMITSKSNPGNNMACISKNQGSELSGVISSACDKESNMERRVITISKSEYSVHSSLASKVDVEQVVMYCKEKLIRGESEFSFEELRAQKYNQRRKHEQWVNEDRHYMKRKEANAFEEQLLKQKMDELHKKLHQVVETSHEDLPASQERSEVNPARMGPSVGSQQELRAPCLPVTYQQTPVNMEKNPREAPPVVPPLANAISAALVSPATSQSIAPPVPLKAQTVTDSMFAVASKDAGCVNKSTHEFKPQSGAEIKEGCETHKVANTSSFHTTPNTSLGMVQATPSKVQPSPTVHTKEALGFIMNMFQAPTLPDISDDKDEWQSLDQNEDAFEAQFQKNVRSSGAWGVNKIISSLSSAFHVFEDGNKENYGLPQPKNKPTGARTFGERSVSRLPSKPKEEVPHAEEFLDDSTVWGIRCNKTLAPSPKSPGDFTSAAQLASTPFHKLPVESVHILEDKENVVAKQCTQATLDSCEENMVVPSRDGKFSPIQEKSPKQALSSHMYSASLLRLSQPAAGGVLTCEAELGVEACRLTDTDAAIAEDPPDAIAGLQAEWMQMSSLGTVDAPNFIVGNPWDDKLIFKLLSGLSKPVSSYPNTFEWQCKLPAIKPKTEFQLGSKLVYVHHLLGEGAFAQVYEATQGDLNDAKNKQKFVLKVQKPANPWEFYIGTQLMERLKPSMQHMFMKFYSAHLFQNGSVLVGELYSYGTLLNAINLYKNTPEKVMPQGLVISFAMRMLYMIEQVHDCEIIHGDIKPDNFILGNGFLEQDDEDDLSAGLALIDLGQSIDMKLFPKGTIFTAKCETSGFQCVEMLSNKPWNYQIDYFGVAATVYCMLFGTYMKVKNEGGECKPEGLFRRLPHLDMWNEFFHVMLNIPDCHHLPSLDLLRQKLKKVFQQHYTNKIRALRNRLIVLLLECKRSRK
Sequence of NIK (MAP3K14) (Q99558 whole entry): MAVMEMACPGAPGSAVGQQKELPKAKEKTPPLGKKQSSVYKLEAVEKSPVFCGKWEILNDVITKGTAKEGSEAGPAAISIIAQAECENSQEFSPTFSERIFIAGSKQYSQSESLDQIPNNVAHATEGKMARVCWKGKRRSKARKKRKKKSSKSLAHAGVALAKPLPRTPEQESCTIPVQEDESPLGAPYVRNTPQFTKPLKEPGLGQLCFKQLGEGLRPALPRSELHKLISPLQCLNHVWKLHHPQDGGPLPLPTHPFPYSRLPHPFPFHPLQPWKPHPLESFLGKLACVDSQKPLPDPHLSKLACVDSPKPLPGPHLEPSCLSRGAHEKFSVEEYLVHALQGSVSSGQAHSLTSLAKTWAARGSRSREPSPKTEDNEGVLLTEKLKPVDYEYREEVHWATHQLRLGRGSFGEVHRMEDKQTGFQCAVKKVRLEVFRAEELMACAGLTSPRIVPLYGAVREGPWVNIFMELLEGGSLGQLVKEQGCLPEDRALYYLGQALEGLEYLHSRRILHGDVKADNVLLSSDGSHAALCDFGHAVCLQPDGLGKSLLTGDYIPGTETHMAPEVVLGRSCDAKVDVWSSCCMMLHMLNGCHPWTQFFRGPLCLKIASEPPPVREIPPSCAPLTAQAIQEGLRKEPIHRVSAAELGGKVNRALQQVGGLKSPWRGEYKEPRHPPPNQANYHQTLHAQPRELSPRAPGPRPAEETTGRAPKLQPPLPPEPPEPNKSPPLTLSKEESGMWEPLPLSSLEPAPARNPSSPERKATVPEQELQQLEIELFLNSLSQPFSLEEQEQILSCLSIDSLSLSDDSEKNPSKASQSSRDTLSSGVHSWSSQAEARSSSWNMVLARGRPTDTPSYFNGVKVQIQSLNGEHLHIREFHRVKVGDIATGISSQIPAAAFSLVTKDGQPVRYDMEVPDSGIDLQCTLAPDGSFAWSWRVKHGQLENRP

CN1CCN(C(=O)c2ccc3cc(CCNc4ccnc5ccc(C#N)cc45)ccc3c2)CC1 [compound 6148, 4-((2-(6-(4-methylpiperazine-1-carbonyl)naphthalen-2-yl)ethyl)amino)quinoline-6-carbonitrile]
remaining binding at 2 µM (CAMK1G): 92%
remaining binding at 2 µM (EGFR(L861Q)): 64%
remaining binding at 2 µM (FLT3(D835Y)): 73%
remaining binding at 2 µM (MAP4K2): 29%
remaining binding at 2 µM (RIOK1): 94%
remaining binding at 2 µM (EGFR): 91%
remaining binding at 2 µM (MERTK): 89%
remaining binding at 2 µM (WNK1): 72%
remaining binding at 2 µM (PDGFRA): 97%
remaining binding at 2 µM (SGK2): 61%
remaining binding at 2 µM (CSNK1A1): 76%
remaining binding at 2 µM (ULK2): 71%
remaining binding at 2 µM (ZAP70): 81%
remaining binding at 2 µM (SRPK2): 94%
remaining binding at 2 µM (AKT2): 100%
remaining binding at 2 µM (TNK1): 95%
remaining binding at 2 µM (DDR2): 64%
remaining binding at 2 µM (PKAC-beta (PRKACB)): 100%
remaining binding at 2 µM (NIK (MAP3K14)): 88%
remaining binding at 2 µM (CLK1): 60%
remaining binding at 2 µM (GSK3B): 67%
remaining binding at 2 µM (RIPK5 (DSTYK)): 69%
remaining binding at 2 µM (PAK2): 84%
remaining binding at 2 µM (MKK7 (MAP2K7)): 75%
remaining binding at 2 µM (PCTK2 (CDK17)): 98%
remaining binding at 2 µM (PLK3): 80%
remaining binding at 2 µM (PRKD2): 88%
remaining binding at 2 µM (BMPR2): 66%
remaining binding at 2 µM (TSSK3): 81%
remaining binding at 2 µM (EIF2AK1): 84%
remaining binding at 2 µM (CAMK2G): 100%
remaining binding at 2 µM (NEK5): 97%
remaining binding at 2 µM (BUB1): 68%
remaining binding at 2 µM (LOK (STK10)): 94%
remaining binding at 2 µM (PIM2): 81%
remaining binding at 2 µM (GRK2 (ADRBK1)): 63%
remaining binding at 2 µM (RIOK3): 85%
remaining binding at 2 µM (TNNI3K): 100%
remaining binding at 2 µM (PIM1): 62%
remaining binding at 2 µM [1]: 74%
remaining binding at 2 µM (FYN): 89%

Reference: patent publication US12281080B2, “Quinoline-based compounds and methods of inhibiting CDK8/19” (University of South Carolina, priority 2018, dated 2025)
